According to PubChem BioAssay AID1963980 (Molecular Pharmacology Branch, DTP, NCI, 2024):

System: 475296-252-R-J1-PDC spheroid viability
Assay: Anticancer human tumor 475296-252-R-J1-PDC patient-derived rectal carcinoma cell line growth inhibition [PI3K]
Conditions: spheroids with HUVEC and MSC; for IC50: curve of first compound; for viability, T/C: stronger effect = lower value
Procedure, shortened: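 Targeted small molecules plus PI3K inhibitors, half-log dose series from Cmax (default top 10 microM), were applied to heterotypic spheroids of cancer cells with HUVEC and MSCs. Viability indicated growth inhibition.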

[1] = second compound 0.0316 µM, first compound 0.0316 µM
[2] = second compound 0.0316 µM, first compound 0.1 µM
[3] = second compound 0.0316 µM, first compound 0.316 µM
[4] = second compound 0.0316 µM, first compound 1 µM
[5] = second compound 0.0316 µM, first compound 3.16 µM
[6] = second compound 0.0316 µM, first compound 10 µM
[7] = second compound 0.1 µM, first compound 0.0316 µM
[8] = second compound 0.1 µM, first compound 0.1 µM
[9] = second compound 0.1 µM, first compound 0.316 µM
[10] = second compound 0.1 µM, first compound 1 µM
[11] = second compound 0.1 µM, first compound 3.16 µM
[12] = second compound 0.1 µM, first compound 10 µM
[13] = second compound 0.316 µM, first compound 0.0316 µM
[14] = second compound 0.316 µM, first compound 0.1 µM
[15] = second compound 0.316 µM, first compound 0.316 µM
[16] = second compound 0.316 µM, first compound 1 µM
[17] = second compound 0.316 µM, first compound 3.16 µM
[18] = second compound 0.316 µM, first compound 10 µM
[19] = second compound 1 µM, first compound 0.0316 µM
[20] = second compound 1 µM, first compound 0.1 µM
[21] = second compound 1 µM, first compound 0.316 µM
[22] = second compound 1 µM, first compound 1 µM
[23] = second compound 1 µM, first compound 3.16 µM
[24] = second compound 1 µM, first compound 10 µM
[25] = second compound 3.16 µM, first compound 0.0316 µM
[26] = second compound 3.16 µM, first compound 0.1 µM
[27] = second compound 3.16 µM, first compound 0.316 µM
[28] = second compound 3.16 µM, first compound 1 µM
[29] = second compound 3.16 µM, first compound 3.16 µM
[30] = second compound 3.16 µM, first compound 10 µM
[31] = second compound 10 µM, first compound 0.0316 µM
[32] = second compound 10 µM, first compound 0.1 µM
[33] = second compound 10 µM, first compound 0.316 µM
[34] = second compound 10 µM, first compound 1 µM
[35] = second compound 10 µM, first compound 3.16 µM
[36] = second compound 10 µM, first compound 10 µM
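Also: spheroids exposed to agents for seven days before readout.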

For `C#Cc1c(F)ccc2cc(O)cc(-c3ncc4c(N5CC6CCC(C5)N6)nc(OCC56CCCN5CC(F)C6)nc4c3F)c12` (centres undefined) + CC(Nc1ncnc2nc[nH]c12)c1cc2cccc(Cl)c2c(=O)n1-c1ccccc1, the IC50 (second compound 0.0316 µM) was greater than 10 µM, the IC50 (second compound 0.1 µM) was greater than 10 µM and the IC50 (second compound 0.316 µM) was greater than 10 µM. It also gave an IC50 (second compound 1 µM) of 6.37 µM, an IC50 (second compound 3.16 µM) of 3.95 µM and an IC50 (second compound 10 µM) of 1.76 µM. The viability, T/C [1] was 94.9%, the viability, T/C [2] was 73.8% and the viability, T/C [3] was 77.2%. The viability, T/C [4] was 71.8%, the viability, T/C [5] was 68.8% and the viability, T/C [6] was 46.7%. It also gave a viability, T/C [7] of 91.5%, a viability, T/C [8] of 96.5% and a viability, T/C [9] of 79.7%. For the same compound, the viability, T/C [10] was 71.7%, the viability, T/C [11] was 68.1% and the viability, T/C [12] was 54.4%. It also gave a viability, T/C [13] of 96.7%, a viability, T/C [14] of 83.3% and a viability, T/C [15] of 79.3%. The viability, T/C [16] was 73.5%, the viability, T/C [17] was 66.9% and the viability, T/C [18] was 47.3%. For the same compound, the viability, T/C [19] was 100%, the viability, T/C [20] was 85.5% and the viability, T/C [21] was 71.1%. It also gave a viability, T/C [22] of 70.3%, a viability, T/C [23] of 57.9% and a viability, T/C [24] of 43.8%. The viability, T/C [25] was 102%, the viability, T/C [26] was 88.6% and the viability, T/C [27] was 71.7%. For the same compound, the viability, T/C [28] was 61%, the viability, T/C [29] was 56% and the viability, T/C [30] was 40.6%. For the same compound, the viability, T/C [31] was 95.2%, the viability, T/C [32] was 81.6% and the viability, T/C [33] was 68.4%. The viability, T/C [34] was 55.4%, the viability, T/C [35] was 45.3% and the viability, T/C [36] was 31.8%.

Compound `C=CC(=O)N1CCN(c2nc(=O)n(-c3c(C)ccnc3C(C)C)c3nc(-c4c(O)cccc4F)c(F)cc23)C(C)C1` (centres undefined) + CC(Nc1ncnc2nc[nH]c12)c1cc2cccc(Cl)c2c(=O)n1-c1ccccc1 has an IC50 (second compound 0.0316 µM) greater than 10 µM, an IC50 (second compound 0.1 µM) greater than 10 µM and an IC50 (second compound 0.316 µM) greater than 10 µM. The IC50 (second compound 1 µM) was greater than 10 µM, the IC50 (second compound 3.16 µM) was greater than 10 µM and the IC50 (second compound 10 µM) was greater than 10 µM. It also gave a viability, T/C [1] of 110%, a viability, T/C [2] of 98.7% and a viability, T/C [3] of 103%. It also gave a viability, T/C [4] of 89%, a viability, T/C [5] of 102% and a viability, T/C [6] of 103%. The viability, T/C [7] was 95.7%, the viability, T/C [8] was 92% and the viability, T/C [9] was 105%. The viability, T/C [10] was 87.9%, the viability, T/C [11] was 109% and the viability, T/C [12] was 101%. The viability, T/C [13] was 93.9%, the viability, T/C [14] was 90.2% and the viability, T/C [15] was 87.4%. The viability, T/C [16] was 96%, the viability, T/C [17] was 106% and the viability, T/C [18] was 116%. The viability, T/C [19] was 95.3%, the viability, T/C [20] was 97.2% and the viability, T/C [21] was 91.8%. For the same compound, the viability, T/C [22] was 92.1%, the viability, T/C [23] was 106% and the viability, T/C [24] was 93.5%. It also gave a viability, T/C [25] of 96.2%, a viability, T/C [26] of 92.9% and a viability, T/C [27] of 99.4%. For the same compound, the viability, T/C [28] was 107%, the viability, T/C [29] was 103% and the viability, T/C [30] was 90.2%. For the same compound, the viability, T/C [31] was 83.8%, the viability, T/C [32] was 91.9% and the viability, T/C [33] was 86.9%. It also gave a viability, T/C [34] of 80.7%, a viability, T/C [35] of 95.8% and a viability, T/C [36] of 95.6%.
